ChEMBL document CHEMBL4507273 (2021)

Experiments:
[1] = biological target: Calcium/calmodulin-dependent protein kinase type II subunit beta (Homo sapiens) (UniProt Q13554); details: Compound concentration 1000.0 nM
[2] = biological target: Serine/threonine-protein kinase Nek10 (Homo sapiens) (UniProt Q6ZWH5); details: Compound concentration 1000.0 nM
[3] = biological target: Transient receptor potential cation channel subfamily M member 6 (Homo sapiens) (UniProt Q9BX84); details: Compound concentration 1000.0 nM
[4] = biological target: Serine/threonine-protein kinase DCLK1 (Homo sapiens) (UniProt O15075); details: Compound concentration 1000.0 nM
[5] = biological target: MAP/microtubule affinity-regulating kinase 4 (Homo sapiens) (UniProt Q96L34); details: Compound concentration 1000.0 nM
[6] = biological target: Mitogen-activated protein kinase 14 (Homo sapiens) (UniProt Q16539); details: Compound concentration 1000.0 nM
[7] = biological target: Tyrosine-protein kinase ABL2 (Homo sapiens) (UniProt P42684); details: Compound concentration 1000.0 nM
[8] = biological target: NT-3 growth factor receptor (Homo sapiens) (UniProt Q16288); details: Compound concentration 1000.0 nM
[9] = biological target: Mitogen-activated protein kinase kinase kinase 2 (Homo sapiens) (UniProt Q9Y2U5); details: Compound concentration 1000.0 nM
[10] = biological target: Tyrosine-protein kinase HCK (Homo sapiens) (UniProt P08631); details: Compound concentration 1000.0 nM
[11] = biological target: Wee1-like protein kinase (Homo sapiens) (UniProt P30291); details: Compound concentration 1000.0 nM
[12] = biological target: Insulin receptor-related protein (Homo sapiens) (UniProt P14616); details: Compound concentration 1000.0 nM
[13] = biological target: Myosin light chain kinase (Homo sapiens) (UniProt Q32MK0); details: Compound concentration 1000.0 nM
[14] = biological target: Serine/threonine-protein kinase PAK 2 (Homo sapiens) (UniProt Q13177); details: Compound concentration 1000.0 nM
[15] = biological target: Protein-tyrosine kinase 6 (Homo sapiens) (UniProt Q13882); details: Compound concentration 1000.0 nM
[16] = biological target: Tyrosine-protein kinase Tec (Homo sapiens) (UniProt P42680); details: Compound concentration 1000.0 nM
[17] = biological target: Cyclin-dependent kinase 4 (Homo sapiens) (UniProt P11802); details: Compound concentration 1000.0 nM
[18] = biological target: Mitogen-activated protein kinase kinase kinase kinase 2 (Homo sapiens) (UniProt Q12851); details: Compound concentration 1000.0 nM
[19] = biological target: Mitogen-activated protein kinase 1 (Homo sapiens) (UniProt P28482); details: Compound concentration 1000.0 nM
[20] = biological target: Homeodomain-interacting protein kinase 3 (Homo sapiens) (UniProt Q9H422); details: Compound concentration 1000.0 nM
[21] = biological target: Atypical kinase COQ8A, mitochondrial (Homo sapiens) (UniProt Q8NI60); details: Compound concentration 1000.0 nM
[22] = biological target: Ephrin type-B receptor 2 (Homo sapiens) (UniProt P29323); details: Compound concentration 1000.0 nM
[23] = biological target: Sigma intracellular receptor 2 (Homo sapiens, UniProt Q5BJF2); experiment: GPCRScan assay: inhibition of Sigma 2; design: radioligand conc. used [nm] 5.0, parental cells HEKT
[24] = biological target: T1, Alpha-1B adrenergic receptor (Homo sapiens, UniProt P35368); experiment: GPCRScan assay: inhibition of Alpha1B; design: radioligand conc. used [nm] 0.3 – 1.0, parental cells stable HEK
T1 sequence (P35368 whole entry): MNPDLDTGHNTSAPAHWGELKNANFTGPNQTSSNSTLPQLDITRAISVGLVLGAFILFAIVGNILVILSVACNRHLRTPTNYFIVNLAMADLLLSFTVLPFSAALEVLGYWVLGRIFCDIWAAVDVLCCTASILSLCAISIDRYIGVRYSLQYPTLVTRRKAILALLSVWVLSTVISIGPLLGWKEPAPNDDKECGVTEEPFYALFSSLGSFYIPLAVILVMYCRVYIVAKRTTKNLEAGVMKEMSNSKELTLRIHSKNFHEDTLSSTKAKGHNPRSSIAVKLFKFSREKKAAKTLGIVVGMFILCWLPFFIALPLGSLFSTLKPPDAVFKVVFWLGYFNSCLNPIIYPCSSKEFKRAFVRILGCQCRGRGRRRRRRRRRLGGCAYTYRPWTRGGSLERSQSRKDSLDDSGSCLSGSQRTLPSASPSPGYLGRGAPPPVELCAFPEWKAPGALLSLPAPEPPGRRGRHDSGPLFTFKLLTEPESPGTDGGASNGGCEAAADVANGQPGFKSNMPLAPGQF

[25] = biological target: Ephrin type-A receptor 7 (Homo sapiens) (UniProt Q15375); details: Compound concentration 1000.0 nM
[26] = biological target: Cyclin-dependent kinase 18 (Homo sapiens) (UniProt Q07002); details: Compound concentration 1000.0 nM
[27] = biological target: Myosin light chain kinase family member 4 (Homo sapiens) (UniProt Q86YV6); details: Compound concentration 1000.0 nM
[28] = system: Phosphatidylinositol 4,5-bisphosphate 3-kinase catalytic subunit alpha isoform (Homo sapiens), P42336 [E545K]; details: Compound concentration 1000.0 nM
[29] = biological target: Ribosomal protein S6 kinase beta-1 (Homo sapiens) (UniProt P23443); details: Compound concentration 1000.0 nM
[30] = system: eIF-2-alpha kinase GCN2 (Homo sapiens), Q9P2K8 [S808G]; details: Compound concentration 1000.0 nM
[31] = biological target: Serine/threonine-protein kinase OSR1 (Homo sapiens) (UniProt O95747); details: Compound concentration 1000.0 nM
[32] = biological target: Tyrosine-protein kinase ABL1 (Homo sapiens) (UniProt P00519); details: Compound concentration 1000.0 nM
[33] = biological target: Serine/threonine-protein kinase 3 (Homo sapiens) (UniProt Q13188); details: Compound concentration 1000.0 nM
[34] = biological target: Citron Rho-interacting kinase (Homo sapiens) (UniProt O14578); details: Compound concentration 1000.0 nM
[35] = biological target: Tyrosine-protein kinase Fgr (Homo sapiens) (UniProt P09769); details: Compound concentration 1000.0 nM
[36] = biological target: Serine/threonine-protein kinase mTOR (Homo sapiens) (UniProt P42345); details: Compound concentration 1000.0 nM
[37] = biological target: Epidermal growth factor receptor (Homo sapiens, UniProt P00533); experiment: EGFR kinase inhibition assay
[38] = biological target: Dual serine/threonine and tyrosine protein kinase (Homo sapiens) (UniProt Q6XUX3); details: Compound concentration 1000.0 nM

Chain of Sigma intracellular receptor 2 (Q5BJF2 whole entry): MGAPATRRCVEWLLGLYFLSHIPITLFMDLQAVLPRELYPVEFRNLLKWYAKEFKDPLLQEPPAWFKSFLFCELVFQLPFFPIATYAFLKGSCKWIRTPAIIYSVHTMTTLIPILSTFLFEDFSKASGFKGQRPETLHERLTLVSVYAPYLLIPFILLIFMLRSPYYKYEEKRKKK
Chain of Epidermal growth factor receptor (P00533 whole entry): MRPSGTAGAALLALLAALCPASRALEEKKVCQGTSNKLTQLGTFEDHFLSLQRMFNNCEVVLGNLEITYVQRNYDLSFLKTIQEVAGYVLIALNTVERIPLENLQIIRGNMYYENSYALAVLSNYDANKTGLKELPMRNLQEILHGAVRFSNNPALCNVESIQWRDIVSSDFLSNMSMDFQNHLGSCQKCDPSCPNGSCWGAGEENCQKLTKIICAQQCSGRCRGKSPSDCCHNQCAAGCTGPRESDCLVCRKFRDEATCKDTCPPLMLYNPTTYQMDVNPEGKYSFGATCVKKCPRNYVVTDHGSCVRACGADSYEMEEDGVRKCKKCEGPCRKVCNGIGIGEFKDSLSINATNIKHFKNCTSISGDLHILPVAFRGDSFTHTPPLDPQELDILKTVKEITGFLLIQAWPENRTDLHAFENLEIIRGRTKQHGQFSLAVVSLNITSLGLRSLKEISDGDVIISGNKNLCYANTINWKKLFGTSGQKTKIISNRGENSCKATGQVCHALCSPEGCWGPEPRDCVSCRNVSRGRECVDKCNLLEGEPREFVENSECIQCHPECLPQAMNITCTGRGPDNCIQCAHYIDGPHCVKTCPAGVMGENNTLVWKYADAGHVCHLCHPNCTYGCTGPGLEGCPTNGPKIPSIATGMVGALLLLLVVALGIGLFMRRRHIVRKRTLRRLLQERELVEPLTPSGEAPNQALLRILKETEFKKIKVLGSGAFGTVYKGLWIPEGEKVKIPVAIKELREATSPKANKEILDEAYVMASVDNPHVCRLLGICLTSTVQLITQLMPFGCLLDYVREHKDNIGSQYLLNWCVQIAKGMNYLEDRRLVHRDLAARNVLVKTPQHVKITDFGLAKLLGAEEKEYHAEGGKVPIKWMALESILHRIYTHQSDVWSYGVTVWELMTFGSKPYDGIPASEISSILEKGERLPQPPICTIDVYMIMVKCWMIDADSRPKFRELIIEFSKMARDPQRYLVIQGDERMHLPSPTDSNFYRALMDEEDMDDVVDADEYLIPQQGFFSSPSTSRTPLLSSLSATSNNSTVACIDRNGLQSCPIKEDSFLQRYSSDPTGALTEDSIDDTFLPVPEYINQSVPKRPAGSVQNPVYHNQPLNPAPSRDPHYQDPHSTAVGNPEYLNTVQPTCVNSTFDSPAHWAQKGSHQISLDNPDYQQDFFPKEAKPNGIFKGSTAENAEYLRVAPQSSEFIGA
Chain of Calcium/calmodulin-dependent protein kinase type II subunit beta (Homo sapiens) (Q13554 whole entry): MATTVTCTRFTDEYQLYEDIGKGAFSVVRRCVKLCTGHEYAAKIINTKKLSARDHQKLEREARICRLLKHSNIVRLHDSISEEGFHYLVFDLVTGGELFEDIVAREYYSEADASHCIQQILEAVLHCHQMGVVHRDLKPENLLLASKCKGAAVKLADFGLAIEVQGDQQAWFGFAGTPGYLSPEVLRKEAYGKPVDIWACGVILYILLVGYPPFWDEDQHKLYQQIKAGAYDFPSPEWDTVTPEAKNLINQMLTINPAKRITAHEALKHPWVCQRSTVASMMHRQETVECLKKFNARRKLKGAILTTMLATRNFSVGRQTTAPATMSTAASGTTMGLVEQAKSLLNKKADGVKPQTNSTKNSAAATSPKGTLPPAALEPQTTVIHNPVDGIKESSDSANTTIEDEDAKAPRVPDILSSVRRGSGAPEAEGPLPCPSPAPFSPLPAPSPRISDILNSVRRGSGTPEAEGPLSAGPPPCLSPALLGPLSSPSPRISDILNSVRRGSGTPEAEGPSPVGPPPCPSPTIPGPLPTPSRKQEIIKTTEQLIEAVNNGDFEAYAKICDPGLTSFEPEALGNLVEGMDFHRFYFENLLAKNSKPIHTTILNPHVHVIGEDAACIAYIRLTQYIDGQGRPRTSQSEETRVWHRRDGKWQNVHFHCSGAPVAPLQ
Chain of Serine/threonine-protein kinase DCLK1 (Homo sapiens) (O15075 whole entry): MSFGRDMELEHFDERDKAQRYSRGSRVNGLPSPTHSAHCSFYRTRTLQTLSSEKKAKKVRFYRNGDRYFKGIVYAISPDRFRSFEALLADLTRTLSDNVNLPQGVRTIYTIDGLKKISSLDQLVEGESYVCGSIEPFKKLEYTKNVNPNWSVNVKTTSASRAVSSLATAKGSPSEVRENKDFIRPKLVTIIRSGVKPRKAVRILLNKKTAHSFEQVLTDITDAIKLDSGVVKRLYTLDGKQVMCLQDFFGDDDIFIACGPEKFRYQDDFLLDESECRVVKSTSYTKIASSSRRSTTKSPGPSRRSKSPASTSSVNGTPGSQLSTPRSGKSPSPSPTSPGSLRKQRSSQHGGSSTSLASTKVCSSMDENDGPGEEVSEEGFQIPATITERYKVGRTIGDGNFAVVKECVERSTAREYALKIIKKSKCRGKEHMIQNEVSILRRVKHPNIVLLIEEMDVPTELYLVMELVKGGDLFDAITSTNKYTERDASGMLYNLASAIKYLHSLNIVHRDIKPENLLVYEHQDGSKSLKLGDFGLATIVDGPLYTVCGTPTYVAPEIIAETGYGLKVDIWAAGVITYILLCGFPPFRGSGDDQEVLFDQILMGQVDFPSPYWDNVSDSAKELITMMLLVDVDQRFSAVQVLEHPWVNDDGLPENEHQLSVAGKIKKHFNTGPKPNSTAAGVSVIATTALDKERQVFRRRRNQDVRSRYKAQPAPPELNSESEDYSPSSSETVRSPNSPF
Chain of Protein-tyrosine kinase 6 (Homo sapiens) (Q13882 whole entry, looked up): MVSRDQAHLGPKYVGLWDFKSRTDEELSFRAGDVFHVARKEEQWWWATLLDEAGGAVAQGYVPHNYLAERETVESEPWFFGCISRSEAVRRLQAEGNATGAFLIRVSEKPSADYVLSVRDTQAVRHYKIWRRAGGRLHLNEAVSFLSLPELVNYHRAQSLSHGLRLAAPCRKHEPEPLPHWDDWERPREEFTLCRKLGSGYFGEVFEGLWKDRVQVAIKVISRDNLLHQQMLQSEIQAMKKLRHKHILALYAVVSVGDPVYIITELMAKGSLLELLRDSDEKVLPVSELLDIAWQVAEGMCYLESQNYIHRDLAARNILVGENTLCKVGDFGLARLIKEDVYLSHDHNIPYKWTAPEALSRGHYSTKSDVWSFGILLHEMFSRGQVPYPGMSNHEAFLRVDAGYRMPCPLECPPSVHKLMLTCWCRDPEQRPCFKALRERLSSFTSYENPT
Chain of Ribosomal protein S6 kinase beta-1 (Homo sapiens) (P23443 whole entry, looked up): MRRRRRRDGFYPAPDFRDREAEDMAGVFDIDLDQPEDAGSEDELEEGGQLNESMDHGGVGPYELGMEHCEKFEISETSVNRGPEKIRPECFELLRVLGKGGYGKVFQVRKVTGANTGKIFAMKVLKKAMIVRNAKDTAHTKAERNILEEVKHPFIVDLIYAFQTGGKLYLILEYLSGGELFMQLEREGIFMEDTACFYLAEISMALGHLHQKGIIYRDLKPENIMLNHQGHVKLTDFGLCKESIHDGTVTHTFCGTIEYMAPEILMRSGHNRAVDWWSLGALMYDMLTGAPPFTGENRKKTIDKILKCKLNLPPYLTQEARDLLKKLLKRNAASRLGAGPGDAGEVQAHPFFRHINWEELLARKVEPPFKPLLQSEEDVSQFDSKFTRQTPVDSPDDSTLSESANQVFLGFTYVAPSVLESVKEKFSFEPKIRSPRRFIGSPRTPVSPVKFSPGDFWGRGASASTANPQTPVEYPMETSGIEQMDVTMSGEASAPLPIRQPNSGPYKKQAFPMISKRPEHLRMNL
Chain of Serine/threonine-protein kinase 3 (Homo sapiens) (Q13188 whole entry): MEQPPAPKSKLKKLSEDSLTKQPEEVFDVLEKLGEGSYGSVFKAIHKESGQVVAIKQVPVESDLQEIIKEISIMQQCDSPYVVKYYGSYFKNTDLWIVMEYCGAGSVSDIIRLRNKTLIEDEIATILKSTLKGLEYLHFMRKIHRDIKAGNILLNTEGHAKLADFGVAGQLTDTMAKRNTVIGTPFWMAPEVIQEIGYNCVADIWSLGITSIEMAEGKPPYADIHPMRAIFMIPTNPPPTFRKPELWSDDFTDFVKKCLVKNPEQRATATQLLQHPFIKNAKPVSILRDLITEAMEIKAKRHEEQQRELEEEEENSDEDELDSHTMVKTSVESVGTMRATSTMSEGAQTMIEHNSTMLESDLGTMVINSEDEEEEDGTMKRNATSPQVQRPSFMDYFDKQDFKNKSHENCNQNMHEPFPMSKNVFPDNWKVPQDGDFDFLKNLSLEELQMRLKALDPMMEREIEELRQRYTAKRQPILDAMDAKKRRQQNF
Chain of Wee1-like protein kinase (Homo sapiens) (P30291 whole entry, looked up): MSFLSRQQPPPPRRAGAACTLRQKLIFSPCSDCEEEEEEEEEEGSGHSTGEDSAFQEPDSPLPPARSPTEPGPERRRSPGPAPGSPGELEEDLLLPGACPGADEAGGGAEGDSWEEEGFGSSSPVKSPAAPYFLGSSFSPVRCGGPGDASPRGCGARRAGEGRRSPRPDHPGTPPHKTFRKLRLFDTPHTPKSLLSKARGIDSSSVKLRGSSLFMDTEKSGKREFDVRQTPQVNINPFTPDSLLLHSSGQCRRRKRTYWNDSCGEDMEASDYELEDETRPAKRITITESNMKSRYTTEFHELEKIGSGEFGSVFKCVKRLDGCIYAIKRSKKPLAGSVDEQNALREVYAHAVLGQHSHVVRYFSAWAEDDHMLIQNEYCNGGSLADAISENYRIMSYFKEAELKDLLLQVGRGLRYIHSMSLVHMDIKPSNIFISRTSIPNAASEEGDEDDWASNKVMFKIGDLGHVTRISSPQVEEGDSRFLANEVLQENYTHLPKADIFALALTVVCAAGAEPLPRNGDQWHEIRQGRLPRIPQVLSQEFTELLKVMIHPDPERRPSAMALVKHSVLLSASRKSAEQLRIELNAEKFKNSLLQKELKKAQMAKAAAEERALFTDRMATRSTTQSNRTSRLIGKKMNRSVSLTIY

Structure (SMILES) | residual activity [1] [%] | residual activity [2] [%] | residual activity [3] [%] | residual activity [4] [%] | residual activity [5] [%] | residual activity [6] [%] | residual activity [7] [%] | residual activity [8] [%] | residual activity [9] [%] | residual activity [10] [%] | residual activity [11] [%] | residual activity [12] [%] | residual activity [13] [%] | residual activity [14] [%] | residual activity [15] [%] | residual activity [16] [%] | residual activity [17] [%] | residual activity [18] [%] | residual activity [19] [%] | residual activity [20] [%] | further results
CNCc1ccccc1-c1csc([C@@H](C)Nc2nc(C)nc3cc(OC)c(OC)cc23)c1 [BAY-293] | 92 | 73 | 91 | 86 | 100 | 87 | 100 | 88 | 87 | 97 | 100 | 95 | 96 | 88 | 100 | 100 | 90 | 91 | 78 | 83 | residual activity [21]: 92%; residual activity [22]: 100%; Ki ([23]; read-out: Ki): 180 nM; Ki ([24]; read-out: Ki): 265 nM; residual activity [25]: 100%; residual activity [26]: 100%; residual activity [27]: 99%; residual activity [28]: 78%; residual activity [29]: 86%; residual activity [30]: 99%; residual activity [31]: 67%; residual activity [32]: 80%; residual activity [33]: 85%; residual activity [34]: 92%; residual activity [35]: 100%; residual activity [36]: 100%; IC50 [37]: > 20000 nM (not active); residual activity [38]: 83%
CNCc1ccccc1-c1csc([C@H](C)Nc2nc(C)nc3cc(OC)c(OC)cc23)c1 [BAY-294] | 100 | 78 | 100 | 87 | 100 | 100 | 100 | 100 | 100 | 98 | 100 | 93 | 100 | 97 | 100 | 100 | 96 | 97 | 100 | 97 | residual activity [21]: 91%; residual activity [22]: 100%; Ki ([23]; read-out: Ki): 638 nM; Ki ([23]; read-out: pKi (converted)): 610 nM; Ki ([24]; read-out: Ki): 95.3 nM; Ki ([24]; read-out: pKi (converted)): 86.1 nM; residual activity [25]: 100%; residual activity [26]: 100%; residual activity [27]: 100%; residual activity [28]: 75%; residual activity [29]: 83%; residual activity [30]: 100%; residual activity [31]: 78%; residual activity [32]: 87%; residual activity [33]: 89%; residual activity [34]: 100%; residual activity [35]: 100%; residual activity [36]: 100%; IC50 [37]: > 20000 nM (not active); residual activity [38]: 78%
